Reference: patent publication US12491225B2, “Antiviral compositions and methods” (RALCO NUTRITION, INC., priority 2014, dated 2025)

Tests used:
Conditions in all cases: trolox equivalents
[1] = ORAC, peroxynitrite
Source text: (§1) Antiviral EO compositions as described herein can provide antioxidant properties to a subject or host system. Antioxidants can enhance neutrophil function, improve fertility, reduce heat stress related pregnancy losses, reduce frequency of retained placentas, and reduce metritis in dairy cows. Oxygen radical absorbance capacity (ORAC) is the ability of a compound or composition to act as a proton donor and reducing agent for oxygen radicals. In particular, ORAC measures the ability of a compound or composition to act as a reducing agent for peroxyl radicals, hydroxyl radicals, peroxynitrite, superoxide anion, and singlet oxygen, the five most damaging oxygen radicals.
(§2) ORAC capabilities of EO compositions were tested Brunswick Labs, Massachusetts. Table 20 illustrates the antioxidant ability of several embodiments provided herein, as compared to an industry standard antioxidant, Vitamin E. Results are expressed as trolox equivalents (TE/100 g) for each composition: […]

[2] = ORAC, peroxyl radical
Source text: as §1, §2

[3] = ORAC, hydroxyl radical
Source text: as §1, §2

[4] = ORAC, singlet oxygen
Source text: as §1, §2

[5] = Total ORAC
Source text: as §1, §2

[6] = ORAC, superoxide anion
Source text: as §1, §2

For Arabinogalactan, the “ORAC, Peroxynitrite” value [1] was 1200 TE/100 g, the “ORAC, Peroxyl radical” value [2] was 20600 TE/100 g and the “ORAC, Hydroxyl radical” value [3] was 46400 TE/100 g. The “ORAC, Singlet oxygen” value [4] was 11600 TE/100 g, the “Total ORAC” value [5] was 96400 TE/100 g and the “ORAC, Superoxide anion” value [6] was 16600 TE/100 g.

In the case of Vitamin E [Natural Vitamin E], the “ORAC, Peroxynitrite” value [1] is reported as 0 TE/100 g, the “ORAC, Peroxyl radical” value [2] is reported as 2100 TE/100 g and the “ORAC, Hydroxyl radical” value [3] is reported as 0 TE/100 g. The “ORAC, Singlet oxygen” value [4] was 37100 TE/100 g, the “Total ORAC” value [5] was 39200 TE/100 g and the “ORAC, Superoxide anion” value [6] was 0 TE/100 g.
